Data as given in PubChem BioAssay AID1963984 (Molecular Pharmacology Branch, DTP, NCI, 2024).

System: 233499-124-R-J3-PDC spheroids with HUVEC/MSC, viability
Assay: Anticancer human tumor 233499-124-R-J3-PDC patient-derived colon adenocarcinoma cell line growth inhibition [PI3K]
Details: for viability, T/C: stronger effect = lower value
Source text: Combinatorial screen of targeted agents with the PI3K inhibitors inavolisib, alpelisib, duvelisib, and copanlisib in multi-cell type tumor spheroids
A high-throughput screen of multi-cell type tumor spheroids was designed to identify active combinations of targeted small molecules and PI3K pathway inhibitors. Complex spheroids include a stromal component modeled by human endothelial cells (HUVEC) and fibroblasts modeled by human mesenchymal stem cells (MSCs). The concentration ranges selected for each drug and investigational agent were based upon clinically achievable concentrations if the clinical Cmax of the agent was known.
Compounds. The drugs and investigational agents: inavolisib (NSC800729), alpelisib (NSC765974), duvelisib (NSC772469), copanlisib (NSC816437), ipatasertib (NSC767898), afuresertib (NSC778305), talazoparib (NSC767125), sapanisertib (NSC764658), selumetinib (NSC741078), tovorafenib (DAY101, NSC766906), vemurafenib (NSC761431), ravoxertinib (NSC781343), sotorasib (NSC818433), MRTX1133 (NSC 836407), abemaciclib (NSC 768073), palbociclib (NSC758247), venetoclax (NSC 766270), SY5609 (NSC837396), enzalutamide (NSC755605), and darolutamide (NSC825331), were obtained from the National Cancer Institute (NCI) Developmental Therapeutics Program Chemical Repository. The FDA-approved anticancer drug set is available from the NCI Developmental Therapeutics Program. […] The stock solutions were prepared in dimethyl sulfoxide (DMSO, Sigma-Aldrich, St. Louis, MO, cat. D2650) at 800-fold the tested concentration and stored at -70 degrees C prior to their use. All drugs and investigational agents were tested over a range starting from a high concentration at or near the clinical Cmax and decreasing in half-log increments. If the clinical Cmax for an agent had not been determined, the highest concentration tested was 10 microM.
Cell Culture. All cells were maintained in an incubator at 37 degrees C and 5% CO2 with 95% humidity. The PDC lines were cultured according to standard operating procedures established by the NCI PDMR (https://pdmr.cancer.gov/sops/default.htm). All PDCs were thawed and cultured in Matrigel-coated flasks prepared with a working solution of 1X Ham's F-12 nutrient mix, without supplementation (Invitrogen, Waltham, MA, cat. 11765054), 100 U/mL penicillin-streptomycin (Invitrogen, cat. 15140122), and 2.5% Matrigel (Corning Inc., Corning, NY, cat. 354248) for the first three passages. The 354836-022-R-J1-PDC, 475296-252-R-J1-PDC, and 997726-040-R-J2-PDC lines were cultured in 6A media, which includes advanced DMEM/F-12 (Thermo Fisher Scientific, cat. 12634028), 10 mM HEPES (Thermo Fisher Scientific, cat. 15630080), 1X GlutaMAX supplement (Thermo Fisher Scientific, cat. 35050061), 0.1 mg/mL primocin (InvivoGen, San Diego, CA, cat. ant-pm-2), 10% defined fetal bovine serum, heat inactivated (HyClone Laboratories Inc., Logan, UT, cat. SH30070.03HI), 50% L-WRN conditioned media (ATCC, cat. CRL-3276), 1.25 mM N-Acetyl-L-cysteine (Sigma-Aldrich, cat. A9165), 10 mM nicotinamide (Sigma-Aldrich, cat. N0636), 1X B-27 supplement (Thermo Fisher Scientific, cat. 17504044), 1X N-2 supplement (Thermo Fisher Scientific, cat. 17502048), and 10 microM Y-27632 dihydrochloride (Tocris Bioscience, Bristol, United Kingdom, cat. 1254). The 624824-186-R-J2-PDC line was cultured in 6C/Colon 1B media, which includes all 6A media components plus 50 ng/mL human EGF recombinant protein (Thermo Fisher Scientific, cat. PHG0311). […]

[1] = curve of first compound, second compound 0.0316 µM
[2] = curve of first compound, second compound 0.1 µM
[3] = curve of first compound, second compound 0.316 µM
[4] = curve of first compound, second compound 1 µM
[5] = second compound 0.0316 µM, first compound 0.0316 µM
[6] = second compound 0.0316 µM, first compound 0.1 µM
[7] = second compound 0.1 µM, first compound 0.0316 µM
[8] = second compound 0.1 µM, first compound 0.1 µM
[9] = second compound 0.316 µM, first compound 0.0316 µM
[10] = second compound 0.316 µM, first compound 0.1 µM
[11] = second compound 1 µM, first compound 0.0316 µM
[12] = second compound 1 µM, first compound 0.1 µM
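Further: spheroids exposed to agents for seven days before readout.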
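Wherever viability, T/C is given: percent viability relative to DMSO vehicle control taken as 100%.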

## CC(C)n1nc(-c2ccc3oc(N)nc3c2)c2c(N)ncnc21 + Cc1nc(NC(=O)N2CCCC2C(N)=O)sc1-c1ccnc(C(C)(C)C(F)(F)F)c1
[1]
  IC50: > 0.1 µM
[2]
  IC50: 0.0859 µM
[3]
  IC50: > 0.1 µM
[4]
  IC50: 0.0375 µM
Curve of first compound, second compound 3.16 µM
  IC50: 0.00581 µM
Curve of first compound, second compound 10 µM
  IC50: < 0.000316 µM
Second compound 0.0316 µM, first compound 0.000316 µM
  viability, T/C: 103%
Second compound 0.0316 µM, first compound 0.001 µM
  viability, T/C: 90.9%
Second compound 0.0316 µM, first compound 0.00316 µM
  viability, T/C: 103%
Second compound 0.0316 µM, first compound 0.01 µM
  viability, T/C: 64.7%
[5]
  viability, T/C: 92.6%
[6]
  viability, T/C: 55.2%
Second compound 0.1 µM, first compound 0.000316 µM
  viability, T/C: 99.4%
Second compound 0.1 µM, first compound 0.001 µM
  viability, T/C: 92.4%
Second compound 0.1 µM, first compound 0.00316 µM
  viability, T/C: 54.8%
Second compound 0.1 µM, first compound 0.01 µM
  viability, T/C: 86%
[7]
  viability, T/C: 84%
[8]
  viability, T/C: 45.1%
Second compound 0.316 µM, first compound 0.000316 µM
  viability, T/C: 89.9%
Second compound 0.316 µM, first compound 0.001 µM
  viability, T/C: 81%
Second compound 0.316 µM, first compound 0.00316 µM
  viability, T/C: 90.1%
Second compound 0.316 µM, first compound 0.01 µM
  viability, T/C: 79.1%
[9]
  viability, T/C: 67.7%
[10]
  viability, T/C: 53.9%
Second compound 1 µM, first compound 0.000316 µM
  viability, T/C: 68%
Second compound 1 µM, first compound 0.001 µM
  viability, T/C: 71.8%
Second compound 1 µM, first compound 0.00316 µM
  viability, T/C: 82.1%
Second compound 1 µM, first compound 0.01 µM
  viability, T/C: 62.4%
[11]
  viability, T/C: 55.3%
[12]
  viability, T/C: 25.2%
Second compound 3.16 µM, first compound 0.000316 µM
  viability, T/C: 61.2%
Second compound 3.16 µM, first compound 0.001 µM
  viability, T/C: 50.6%
Second compound 3.16 µM, first compound 0.00316 µM
  viability, T/C: 73%
Second compound 3.16 µM, first compound 0.01 µM
  viability, T/C: 39.7%
Second compound 3.16 µM, first compound 0.0316 µM
  viability, T/C: 43.7%
Second compound 3.16 µM, first compound 0.1 µM
  viability, T/C: 30.7%
Second compound 10 µM, first compound 0.000316 µM
  viability, T/C: 43.7%
Second compound 10 µM, first compound 0.001 µM
  viability, T/C: 26.4%
Second compound 10 µM, first compound 0.00316 µM
  viability, T/C: 29.7%
Second compound 10 µM, first compound 0.01 µM
  viability, T/C: 26.3%
Second compound 10 µM, first compound 0.0316 µM
  viability, T/C: 24.5%
Second compound 10 µM, first compound 0.1 µM
  viability, T/C: 6.69%

## C#Cc1c(F)ccc2cc(O)cc(-c3ncc4c(N5CC6CCC(C5)N6)nc(OCC56CCCN5CC(F)C6)nc4c3F)c12 (stereo unspecified)
Compound 0.0316 µM
  viability, T/C: 96% [middle of 4 runs]
Compound 0.1 µM
  viability, T/C: 102% [middle of 4 runs]
Compound 0.316 µM
  viability, T/C: 95.6% [middle of 4 runs]
Compound 1 µM
  viability, T/C: 99.3% [middle of 4 runs]
Compound 3.16 µM
  viability, T/C: 87.5% [middle of 4 runs]
Compound 10 µM
  viability, T/C: 84.1% [middle of 4 runs]
Curve of compound
  IC50: > 10 µM

## CC1(C)CCC(CN2CCN(c3ccc(C(=O)NS(=O)(=O)c4ccc(NCC5CCOCC5)c([N+](=O)[O-])c4)c(Oc4cnc5[nH]ccc5c4)c3)CC2)=C(c2ccc(Cl)cc2)C1 + CC(Nc1ccc2c(c1)OCCn1cc(N3C(=O)OCC3C(F)F)nc1-2)C(N)=O
Curve of first compound, second compound 0.00316 µM
  IC50: 5.38 µM
Curve of first compound, second compound 0.01 µM
  IC50: 4.1 µM
[1]
  IC50: 4.86 µM
[2]
  IC50: 4.85 µM
[3]
  IC50: 2.16 µM
[4]
  IC50: 3.2 µM
Second compound 0.00316 µM, first compound 0.0316 µM
  viability, T/C: 99.3%
Second compound 0.00316 µM, first compound 0.1 µM
  viability, T/C: 94.1%
Second compound 0.00316 µM, first compound 0.316 µM
  viability, T/C: 71.9%
Second compound 0.00316 µM, first compound 1 µM
  viability, T/C: 109%
Second compound 0.00316 µM, first compound 3.16 µM
  viability, T/C: 90.1%
Second compound 0.00316 µM, first compound 10 µM
  viability, T/C: 3.01%
Second compound 0.01 µM, first compound 0.0316 µM
  viability, T/C: 86%
Second compound 0.01 µM, first compound 0.1 µM
  viability, T/C: 85.5%
Second compound 0.01 µM, first compound 0.316 µM
  viability, T/C: 96.3%
Second compound 0.01 µM, first compound 1 µM
  viability, T/C: 74.7%
Second compound 0.01 µM, first compound 3.16 µM
  viability, T/C: 65.7%
Second compound 0.01 µM, first compound 10 µM
  viability, T/C: 2.45%
[5]
  viability, T/C: 79.3%
[6]
  viability, T/C: 66.2%
Second compound 0.0316 µM, first compound 0.316 µM
  viability, T/C: 75.8%
Second compound 0.0316 µM, first compound 1 µM
  viability, T/C: 73.6%
Second compound 0.0316 µM, first compound 3.16 µM
  viability, T/C: 93.5%
Second compound 0.0316 µM, first compound 10 µM
  viability, T/C: 3.53%
[7]
  viability, T/C: 60.9%
[8]
  viability, T/C: 85.6%
Second compound 0.1 µM, first compound 0.316 µM
  viability, T/C: 86.5%
Second compound 0.1 µM, first compound 1 µM
  viability, T/C: 81%
Second compound 0.1 µM, first compound 3.16 µM
  viability, T/C: 78.8%
Second compound 0.1 µM, first compound 10 µM
  viability, T/C: 1.51%
[9]
  viability, T/C: 75.8%
[10]
  viability, T/C: 69.3%
Second compound 0.316 µM, first compound 0.316 µM
  viability, T/C: 65.2%
Second compound 0.316 µM, first compound 1 µM
  viability, T/C: 77.2%
Second compound 0.316 µM, first compound 3.16 µM
  viability, T/C: 39.2%
Second compound 0.316 µM, first compound 10 µM
  viability, T/C: 4.28%
[11]
  viability, T/C: 66.8%
[12]
  viability, T/C: 49%
Second compound 1 µM, first compound 0.316 µM
  viability, T/C: 47.4%
Second compound 1 µM, first compound 1 µM
  viability, T/C: 58.2%
Second compound 1 µM, first compound 3.16 µM
  viability, T/C: 50.1%
Second compound 1 µM, first compound 10 µM
  viability, T/C: 2.38%
